# From PubChem BioAssay AID256 (DTP/NCI, 2004)
# Values joined by “and” are separate entries in the source; they are usually repeats but may differ in a detail not shown here. Equal values may be shown once. Inconclusive results and toxic doses are left out.
# System: CD2F1 mice, L1210 leukemia ip, survival T/C
# Assay: NCI In Vivo Anticancer Drug Screen. Data for tumor model L1210 Leukemia (intraperitoneal) in CD2F1 (CDF1) mice
# Conditions: higher = longer survival
# Outline: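 Ratio T/C, where T is the treated-group value and C the vehicle-dosed control value, from mice implanted with a transplantable tumor.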
# [1] = endpoint: mean survival time, dose: 100.0 mg/kg/injection, schedule: Q01DX001 (ip), vehicle: Klucel (hydroxypropylcellulose) (HPC)
# [2] = endpoint: mean survival time, dose: 200.0 mg/kg/injection, schedule: Q01DX001 (ip), vehicle: Klucel (hydroxypropylcellulose) (HPC)
# [3] = endpoint: mean survival time, dose: 400.0 mg/kg/injection, schedule: Q01DX001 (ip), vehicle: Klucel (hydroxypropylcellulose) (HPC)
# [4] = endpoint: mean survival time, dose: 100.0 mg/kg/injection, schedule: Q01DX001 (ip), vehicle: saline with Tween-80
# [5] = endpoint: mean survival time, dose: 200.0 mg/kg/injection, schedule: Q01DX001 (ip), vehicle: saline with Tween-80
# [6] = endpoint: mean survival time, dose: 400.0 mg/kg/injection, schedule: Q01DX001 (ip), vehicle: saline with Tween-80
# [7] = endpoint: mean survival time, dose: 100.0 mg/kg/injection, schedule: Q01DX001 (ip), vehicle: saline
# [8] = endpoint: mean survival time, dose: 200.0 mg/kg/injection, schedule: Q01DX001 (ip), vehicle: saline
# [9] = endpoint: mean survival time, dose: 400.0 mg/kg/injection, schedule: Q01DX001 (ip), vehicle: saline
# [10] = endpoint: mean survival time, dose: 25.0 mg/kg/injection, schedule: Q01DX009 (ip), vehicle: saline with Tween-80
# [11] = endpoint: mean survival time, dose: 50.0 mg/kg/injection, schedule: Q01DX009 (ip), vehicle: saline with Tween-80
# [12] = endpoint: mean survival time, dose: 100.0 mg/kg/injection, schedule: Q01DX009 (ip), vehicle: saline with Tween-80
# [13] = endpoint: mean survival time, dose: 100.0 mg/kg/injection, schedule: Q04DX003 (ip), vehicle: saline with Tween-80
# [14] = endpoint: mean survival time, dose: 200.0 mg/kg/injection, schedule: Q01DX009 (ip), vehicle: saline with Tween-80
# [15] = endpoint: mean survival time, dose: 200.0 mg/kg/injection, schedule: Q04DX003 (ip), vehicle: saline with Tween-80
# [16] = endpoint: mean survival time, dose: 400.0 mg/kg/injection, schedule: Q04DX003 (ip), vehicle: saline with Tween-80
smiles,measurement,setting,value
C=CCS(=O)(=O)Cc1cccc(C)c1,T/C,[1],93 % of control
same,T/C,[2],107 % of control
same,T/C,[3],101 % of control
CC(=O)CC(=O)c1ccccc1.CC(=O)CC(=O)c1ccccc1.[Cl][Sn][Cl],T/C,[4],92 % of control
same,T/C,[5],100 % of control
same,T/C,[6],107 % of control
CC1(C)SCNC1C(=O)O (configuration not stated),T/C,[7],96 % of control
same,T/C,[8],100 % of control
same,T/C,[9],94 % of control
N#CC1CCCC1=N (configuration not stated),T/C,"endpoint: mean survival time, dose: 12.5 mg/kg/injection, schedule: Q01DX009 (ip), vehicle: saline with Tween-80",94 % of control
same,T/C,[10],97 % of control
same,T/C,[7],110 % of control
same,T/C,[8],104 % of control
same,T/C,[9],111 % of control
O=C(O)CCC(=O)CCC(=O)c1ccccc1,T/C,[11],96 % of control
same,T/C,[12],98 % of control
same,T/C,[13],91 % of control
same,T/C,[14],98 % of control
COC1=C(OC)C(C(O)CO)OC1=O (configuration not stated),T/C,"endpoint: mean survival time, dose: 25.0 mg/kg/injection, schedule: Q01DX009 (ip), vehicle: water",93 % of control
same,T/C,"endpoint: mean survival time, dose: 50.0 mg/kg/injection, schedule: Q01DX009 (ip), vehicle: water",89 % of control
same,T/C,"endpoint: mean survival time, dose: 100.0 mg/kg/injection, schedule: Q01DX009 (ip), vehicle: water",100 % of control
same,T/C,"endpoint: mean survival time, dose: 200.0 mg/kg/injection, schedule: Q01DX009 (ip), vehicle: water",94 % of control
same,T/C,"endpoint: mean survival time, dose: 400.0 mg/kg/injection, schedule: Q01DX009 (ip), vehicle: water",100 % of control
ClC(Cl)=[C](Cl)[Hg][C](Cl)=C(Cl)Cl,T/C,"endpoint: mean survival time, dose: 6.25 mg/kg/injection, schedule: Q01DX009 (ip), vehicle: saline with Tween-80",93 % of control
C/C(Cc1ccccc1)=N\O,T/C,[13],103 % of control
same,T/C,[15],100 % of control
same,T/C,[16],114 % of control
CCOC(=O)c1ccc(NN=NCCF)cc1,T/C,"endpoint: median survival time, dose: 3.12 mg/kg/injection, schedule: Q01DX009 (ip), vehicle: distilled water + Tween-80",114 % of control and 96 % of control
same,T/C,"endpoint: median survival time, dose: 3.13 mg/kg/injection, schedule: Q01DX009 (ip), vehicle: distilled water + Tween-80",104 % of control
same,T/C,"endpoint: median survival time, dose: 6.25 mg/kg/injection, schedule: Q01DX009 (ip), vehicle: distilled water + Tween-80",122 % of control and 98 % of control (2×)
same,T/C,"endpoint: median survival time, dose: 12.5 mg/kg/injection, schedule: Q01DX009 (ip), vehicle: distilled water + Tween-80",92 % of control and 96 % of control
same,T/C,"endpoint: median survival time, dose: 50.0 mg/kg/injection, schedule: Q01DX009 (ip), vehicle: distilled water + Tween-80",94 % of control
Cc1ccc(S(=O)(=O)SCC(=O)c2ccc([N+](=O)[O-])cc2)cc1,T/C,[7],94 % of control
same,T/C,"endpoint: mean survival time, dose: 100.0 mg/kg/injection, schedule: Q01DX009 (ip), vehicle: saline sonified",96 % of control
same,T/C,[8],92 % of control
same,T/C,"endpoint: mean survival time, dose: 200.0 mg/kg/injection, schedule: Q01DX009 (ip), vehicle: saline sonified",97 % of control
same,T/C,[9],92 % of control
O=C(CC(=O)OCc1ccc([N+](=O)[O-])cc1)OCc1ccc([N+](=O)[O-])cc1,T/C,[2],96 % of control
same,T/C,[3],93 % of control
c1cc2c3c(cccc3c1)N=S=N2,T/C,[13],89 % of control
same,T/C,[15],89 % of control
same,T/C,[16],86 % of control
NNC(=O)Sc1ccccc1,T/C,[7],107 % of control
same,T/C,[8],111 % of control
same,T/C,[9],102 % of control
O=c1[nH]cc(Br)c2sccc12,T/C,[11],102 % of control
same,T/C,[12],104 % of control
Nc1nc2c(c(=O)[nH]1)N(C=O)C(CNc1ccc(C(=O)N[C@@H](CCC(=O)O)C(=O)O)cc1)CN2 (some centres not stated),T/C,"endpoint: mean survival time, dose: 67.0 mg/kg/injection, schedule: Q01DX009 (sc), vehicle: other",105 % of control
same,T/C,"endpoint: mean survival time, dose: 100.0 mg/kg/injection, schedule: Q01DX009 (sc), vehicle: other",101 % of control
same,T/C,"endpoint: mean survival time, dose: 150.0 mg/kg/injection, schedule: Q01DX009 (sc), vehicle: other",101 % of control
same,T/C,"endpoint: mean survival time, dose: 225.0 mg/kg/injection, schedule: Q01DX009 (sc), vehicle: other",108 % of control
same,T/C,"endpoint: mean survival time, dose: 338.0 mg/kg/injection, schedule: Q01DX009 (sc), vehicle: other",103 % of control
CC#CCOCC(O)CCl (configuration not stated),T/C,"endpoint: median survival time, dose: 50.0 mg/kg/injection, schedule: Q01DX005 (ip), vehicle: saline",97 % of control
same,T/C,"endpoint: median survival time, dose: 50.0 mg/kg/injection, schedule: Q01DX005 (ip), vehicle: suspension in saline",104 % of control
same,T/C,"endpoint: median survival time, dose: 100.0 mg/kg/injection, schedule: Q01DX005 (ip), vehicle: saline",94 % of control
same,T/C,"endpoint: median survival time, dose: 100.0 mg/kg/injection, schedule: Q01DX005 (ip), vehicle: suspension in saline",101 % of control
same,T/C,"endpoint: median survival time, dose: 200.0 mg/kg/injection, schedule: Q01DX005 (ip), vehicle: saline",97 % of control
same,T/C,"endpoint: median survival time, dose: 200.0 mg/kg/injection, schedule: Q01DX005 (ip), vehicle: suspension in saline",96 % of control
same,T/C,"endpoint: median survival time, dose: 400.0 mg/kg/injection, schedule: Q01DX005 (ip), vehicle: saline",117 % of control
CC1c2ccc3ccccc3c2C(=O)c2cccc(Cl)c21 (configuration not stated),T/C,"endpoint: median survival time, dose: 50.0 mg/kg/injection, schedule: Q04DX002 (ip), vehicle: saline with Tween-80",100 % of control
same,T/C,"endpoint: median survival time, dose: 100.0 mg/kg/injection, schedule: Q04DX002 (ip), vehicle: saline with Tween-80",100 % of control
same,T/C,"endpoint: median survival time, dose: 200.0 mg/kg/injection, schedule: Q04DX002 (ip), vehicle: saline with Tween-80",111 % of control
same,T/C,"endpoint: median survival time, dose: 400.0 mg/kg/injection, schedule: Q04DX002 (ip), vehicle: saline with Tween-80",88 % of control
C/C=C1/C[C@@H](C)[C@@](C)(O)C(=O)OCC2=CCN3CC[C@@H](OC1=O)[C@@H]23,T/C,"endpoint: mean survival time, dose: 50.0 mg/kg/injection, schedule: Q04DX003 (ip), vehicle: saline with Tween-80",103 % of control
same,T/C,[13],103 % of control
same,T/C,[15],98 % of control
Cc1cc(C)c(C)c(C(C)O)c1C (configuration not stated),T/C,[11],100 % of control
same,T/C,[12],100 % of control
same,T/C,[14],97 % of control
CCCCCCCCN(C)C,T/C,[10],91 % of control
same,T/C,[11],87 % of control
c1ccc(C(c2ccccc2)n2ccnc2)cc1,T/C,"endpoint: mean survival time, dose: 75.0 mg/kg/injection, schedule: Q01DX001 (ip), vehicle: saline",100 % of control
same,T/C,"endpoint: mean survival time, dose: 150.0 mg/kg/injection, schedule: Q01DX001 (ip), vehicle: saline",101 % of control
O=C(CC(NC(=O)OCc1ccccc1)C(=O)O)OCc1ccccc1 (configuration not stated),T/C,[13],103 % of control
same,T/C,[15],95 % of control
same,T/C,[16],102 % of control
O=C(Nc1ccc(Nc2ccncc2)cc1)c1ccc(Nc2ccnc3ccccc23)cc1[N+](=O)[O-],T/C,[4],98 % of control
same,T/C,[5],96 % of control
same,T/C,[6],95 % of control
COc1cc(C(C)=O)cc([N+](=O)[O-])c1O,T/C,[11],102 % of control
same,T/C,[12],91 % of control
CCc1nc(N)nc(N)n1,T/C,"endpoint: mean survival time, dose: 50.0 mg/kg/injection, schedule: Q01DX009 (ip), vehicle: saline",104 % of control
same,T/C,"endpoint: mean survival time, dose: 100.0 mg/kg/injection, schedule: Q01DX009 (ip), vehicle: saline",100 % of control
same,T/C,"endpoint: mean survival time, dose: 200.0 mg/kg/injection, schedule: Q01DX009 (ip), vehicle: saline",104 % of control
O=Cc1cc(Br)c(O)c(Br)c1,T/C,"endpoint: mean survival time, dose: 50.0 mg/kg/injection, schedule: Q01DX001 (ip), vehicle: Klucel (hydroxypropylcellulose) (HPC)",97 % of control
same,T/C,[1],93 % of control
same,T/C,[2],97 % of control
CC(=O)Oc1ccc[nH]c1=O,T/C,"endpoint: mean survival time, dose: 400.0 mg/kg/injection, schedule: Q01DX009 (ip), vehicle: saline",150 % of control and 156 % of control
same,T/C,"endpoint: mean survival time, dose: 600.0 mg/kg/injection, schedule: Q01DX009 (ip), vehicle: saline",100 % of control and 108 % of control
same,T/C,"endpoint: median survival time, dose: 16.7 mg/kg/injection, schedule: Q03HX027 (ip), vehicle: saline with Tween-80",103 % of control
same,T/C,"endpoint: median survival time, dose: 33.0 mg/kg/injection, schedule: Q03HX027 (ip), vehicle: saline with Tween-80",91 % of control and 102 % of control
same,T/C,"endpoint: median survival time, dose: 50.0 mg/kg/injection, schedule: Q01DX009 (ip), vehicle: saline with Tween-80",100 % of control and 101 % of control
same,T/C,"endpoint: median survival time, dose: 66.7 mg/kg/injection, schedule: Q03HX027 (ip), vehicle: saline with Tween-80",91 % of control and 93 % of control and 103 % of control
same,T/C,"endpoint: median survival time, dose: 100.0 mg/kg/injection, schedule: Q01DX009 (ip), vehicle: saline with Tween-80",100 % of control and 102 % of control and 103 % of control
same,T/C,"endpoint: median survival time, dose: 133.0 mg/kg/injection, schedule: Q03HX027 (ip), vehicle: saline with Tween-80",102 % of control and 103 % of control and 106 % of control
same,T/C,"endpoint: median survival time, dose: 200.0 mg/kg/injection, schedule: Q01DX009 (ip), vehicle: saline with Tween-80",103 % of control (2×) and 111 % of control
same,T/C,"endpoint: median survival time, dose: 266.0 mg/kg/injection, schedule: Q03HX027 (ip), vehicle: saline with Tween-80",185 % of control
CCCCc1c(C)[nH]c(=S)[nH]c1=O,T/C,[13],91 % of control
same,T/C,[15],96 % of control
CCON(C(C)=O)c1cccc([N+](=O)[O-])c1,T/C,[7],97 % of control
same,T/C,[8],100 % of control
same,T/C,[9],97 % of control
